Reference: ChEMBL document CHEMBL1764984 (J Med Chem, 2011)
Converted amounts (≈) assume the structure as drawn.

Key:
Blood = test: Inhibition of TNFalpha-induced IL1-beta production in human whole blood after 2 to 5 hrs by ELISA; type: functional, tissue-based
[1] = target: Mitogen-activated protein kinase 14 (Homo sapiens, UniProt Q16539); test: Inhibition of human recombinant p38alpha assessed as incorporation of 33P from gamma-[33P]ATP into myelin basic protein after 30 mins by scintillation counting
[2] = Aqueous solubility of the compound in phosphate buffer at pH 6.5; type: physicochemical
[3] = Permeability of the compound from apical to basolateral side of human Caco2 cells at 10 uM after 21 days; type: ADME, cell-based; details: Caco-2, read-out: permeability
[4] = Permeability of the compound from basolateral to apical side of human Caco2 cells at 10 uM after 21 days; type: ADME, cell-based; details: Caco-2, read-out: permeability
Rattus norvegicus [5] = test: Inhibition of LPS-induced TNFalpha production in rat serum at 3 mg/kg, po administered 30 mins before LPS challenge measured after […] by ELISA; type: functional
[6] = target: T1, Mitogen-activated protein kinase 11 (Homo sapiens, UniProt Q15759); test: Inhibition of P38beta at 10 uM
[7] = target: T2, Epithelial discoidin domain-containing receptor 1 (Homo sapiens, UniProt Q08345); test: Inhibition of DDR1 at 10 uM
[8] = target: Cyclin-G-associated kinase (Homo sapiens) (UniProt O14976); test: Inhibition of GAK at 10 uM
[9] = target: Mitogen-activated protein kinase 8 (Homo sapiens) (UniProt P45983); test: Inhibition of JNK1 at 10 uM
[10] = target: Mitogen-activated protein kinase 9 (Homo sapiens) (UniProt P45984); test: Inhibition of JNK2 at 10 uM
[11] = target: Serine/threonine-protein kinase NLK (Homo sapiens) (UniProt Q9UBE8); test: Inhibition of NLK at 10 uM
[12] = target: Ribosomal protein S6 kinase alpha-3 (Homo sapiens, UniProt P51812); test: Inhibition of RSK2 at 10 uM
[13] = target: T3, Ribosomal protein S6 kinase alpha-4 (Homo sapiens, UniProt O75676); test: Inhibition of RSK4 at 10 uM
[14] = target: T4, Atypical kinase COQ8A, mitochondrial (Homo sapiens, UniProt Q8NI60); details: 10 uM
Description: Inhibition of ADCK3 at 10 uM

[15] = target: T5, Casein kinase I isoform epsilon (Homo sapiens, UniProt P49674); details: 10 uM
Target sequence in this assay (P49674 whole entry, looked up, canonical isoform): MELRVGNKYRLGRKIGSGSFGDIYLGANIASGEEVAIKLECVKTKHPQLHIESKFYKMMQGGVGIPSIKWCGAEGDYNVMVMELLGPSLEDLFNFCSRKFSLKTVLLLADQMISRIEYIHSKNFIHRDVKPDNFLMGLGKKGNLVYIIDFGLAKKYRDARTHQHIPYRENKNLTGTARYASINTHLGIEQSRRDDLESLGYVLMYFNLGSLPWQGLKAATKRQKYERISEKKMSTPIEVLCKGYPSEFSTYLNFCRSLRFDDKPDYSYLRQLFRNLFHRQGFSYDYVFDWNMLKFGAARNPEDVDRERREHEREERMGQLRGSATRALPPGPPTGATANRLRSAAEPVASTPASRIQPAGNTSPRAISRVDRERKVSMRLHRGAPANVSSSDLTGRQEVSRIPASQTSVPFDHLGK
Description: Inhibition of CSNK1epsilon at 10 uM

[16] = target: T6, Mitogen-activated protein kinase 10 (Homo sapiens, UniProt P53779); details: 10 uM
Description: Inhibition of JNK3 at 10 uM

[17] = target: Serine/threonine-protein kinase 36 (Homo sapiens) (UniProt Q9NRP7); details: 10 uM
Description: Inhibition of STK36 at 10 uM

[18] = target: T1, Mitogen-activated protein kinase 11; test: Inhibition of P38beta
[19] = target: T4, Atypical kinase COQ8A, mitochondrial; test: Inhibition of ADCK3
Target sequence in this assay (Q8NI60 whole entry, canonical isoform): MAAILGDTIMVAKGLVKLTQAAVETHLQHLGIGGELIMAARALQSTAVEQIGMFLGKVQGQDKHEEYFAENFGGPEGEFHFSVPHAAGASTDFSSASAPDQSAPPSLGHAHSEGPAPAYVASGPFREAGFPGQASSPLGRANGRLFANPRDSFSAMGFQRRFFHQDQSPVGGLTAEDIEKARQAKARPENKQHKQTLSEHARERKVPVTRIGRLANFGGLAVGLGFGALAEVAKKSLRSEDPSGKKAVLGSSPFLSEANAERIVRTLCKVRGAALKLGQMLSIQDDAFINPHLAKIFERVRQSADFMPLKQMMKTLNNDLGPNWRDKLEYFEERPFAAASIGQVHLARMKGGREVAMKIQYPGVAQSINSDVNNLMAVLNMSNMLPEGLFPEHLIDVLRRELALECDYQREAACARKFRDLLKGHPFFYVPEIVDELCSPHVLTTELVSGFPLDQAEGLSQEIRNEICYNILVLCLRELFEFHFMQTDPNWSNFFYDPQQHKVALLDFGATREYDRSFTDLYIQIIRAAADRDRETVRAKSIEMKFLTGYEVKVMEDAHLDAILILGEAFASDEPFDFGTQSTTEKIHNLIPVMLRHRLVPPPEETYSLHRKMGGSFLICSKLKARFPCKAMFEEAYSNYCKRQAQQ

[20] = target: T5, Casein kinase I isoform epsilon; test: Inhibition of CSNK1epsilon
Target sequence in this assay (P49674 whole entry, canonical isoform): as the sequence (P49674 whole entry, looked up, canonical isoform) above

[21] = target: T2, Epithelial discoidin domain-containing receptor 1; test: Inhibition of DDR1
[22] = target: T6, Mitogen-activated protein kinase 10; test: Inhibition of JNK3
[23] = target: Serine/threonine-protein kinase NLK (Homo sapiens, UniProt Q9UBE8); test: Inhibition of NLK
[24] = target: T3, Ribosomal protein S6 kinase alpha-4; test: Inhibition of RSK4
[25] = target: Serine/threonine-protein kinase 36 (Homo sapiens, UniProt Q9NRP7); test: Inhibition of STK36
Rattus norvegicus [26] = test: Inhibition of LPS-induced TNFalpha production in po dosed rat serum administered 30 mins before LPS challenge measured after […] by ELISA; type: functional, organism-based
THP-1 = test: Inhibition of LPS-induced TNFalpha production in human THP1 cells after 2 hrs by ELISA; type: functional, cell-based; details: THP-1, 2 h
Rattus norvegicus [27] = test: Inhibition of LPS-induced IL-6 production in po dosed rat serum administered 30 mins before LPS challenge measured after […] by ELISA; type: functional, organism-based
Rattus norvegicus [28] = test: Inhibition of TNF-alpha-induced IL-6 production in po dosed rat plasma administered 30 mins before TNFalpha challenge measured after 2 hrs by ELISA; type: functional, organism-based
Rattus norvegicus [29] = test: Analgesic activity in po dosed rat inflammatory yeast hyperalgesia model assessed as increase in tolerance to pressure; type: functional, organism-based; details: po
[30] = Tmax in cynomolgus monkey at 10 mg/kg, po; type: ADME, organism-based, Macaca fascicularis; design: dose 10 mg/kg, route oral; details: in vivo
[31] = Cmax in cynomolgus monkey at 10 mg/kg, po; type: ADME, organism-based, Macaca fascicularis; design: dose 10 mg/kg, route oral; details: in vivo
[32] = Half life in cynomolgus monkey at 10 mg/kg, po; type: ADME, organism-based, Macaca fascicularis; design: dose 10 mg/kg, route oral; details: in vivo
[33] = AUC (infinity) in cynomolgus monkey at 10 mg/kg, po; type: ADME, organism-based, Macaca fascicularis; design: time infinity, dose 10 mg/kg, route oral; details: plasma
[34] = Oral bioavailability in cynomolgus monkey at 10 mg/kg; type: ADME, organism-based, Macaca fascicularis; details: in vivo
[35] = Clearance in cynomolgus monkey at 10 mg/kg, iv; type: ADME, organism-based, Macaca fascicularis; design: dose 10 mg/kg, route intravenous; details: in vivo
[36] = Volume of distribution at steady state in cynomolgus monkey at 10 mg/kg, iv; type: ADME, organism-based, Macaca fascicularis; design: dose 10 mg/kg, route intravenous; details: in vivo, read-out: Vdss
[37] = Plasma protein binding in cynomolgus monkey by untrafiltration method; type: ADME, cell-free, Macaca fascicularis; details: read-out: PPB (converted)
Cytochrome P450 1A2 = Cytochrome P450 1A2 (Homo sapiens, UniProt P05177); test: Inhibition of human CYP1A2; type: ADME
Cytochrome P450 2C9 = Cytochrome P450 2C9 (Homo sapiens, UniProt P11712); test: Inhibition of human CYP2C9; type: ADME
Cytochrome P450 2C19 = Cytochrome P450 2C19 (Homo sapiens, UniProt P33261); test: Inhibition of human CYP2C19; type: ADME
Cytochrome P450 2D6 = Cytochrome P450 2D6 (Homo sapiens, UniProt P10635); test: Inhibition of human CYP2D6; type: ADME
Cytochrome P450 3A4 = Cytochrome P450 3A4 (Homo sapiens, UniProt P08684); test: Inhibition of human CYP3A4; type: ADME

Chain of Mitogen-activated protein kinase 14 (Q16539 whole entry): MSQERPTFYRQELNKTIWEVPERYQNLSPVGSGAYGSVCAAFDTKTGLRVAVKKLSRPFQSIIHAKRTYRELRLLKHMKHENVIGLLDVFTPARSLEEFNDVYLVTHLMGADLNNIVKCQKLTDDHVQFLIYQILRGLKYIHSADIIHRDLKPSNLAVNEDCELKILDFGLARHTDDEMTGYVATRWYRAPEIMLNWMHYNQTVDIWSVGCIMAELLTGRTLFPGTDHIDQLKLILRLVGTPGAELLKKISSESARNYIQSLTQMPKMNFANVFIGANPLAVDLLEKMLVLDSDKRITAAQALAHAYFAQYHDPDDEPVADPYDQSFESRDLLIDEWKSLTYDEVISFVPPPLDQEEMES
T6 sequence (P53779 whole entry): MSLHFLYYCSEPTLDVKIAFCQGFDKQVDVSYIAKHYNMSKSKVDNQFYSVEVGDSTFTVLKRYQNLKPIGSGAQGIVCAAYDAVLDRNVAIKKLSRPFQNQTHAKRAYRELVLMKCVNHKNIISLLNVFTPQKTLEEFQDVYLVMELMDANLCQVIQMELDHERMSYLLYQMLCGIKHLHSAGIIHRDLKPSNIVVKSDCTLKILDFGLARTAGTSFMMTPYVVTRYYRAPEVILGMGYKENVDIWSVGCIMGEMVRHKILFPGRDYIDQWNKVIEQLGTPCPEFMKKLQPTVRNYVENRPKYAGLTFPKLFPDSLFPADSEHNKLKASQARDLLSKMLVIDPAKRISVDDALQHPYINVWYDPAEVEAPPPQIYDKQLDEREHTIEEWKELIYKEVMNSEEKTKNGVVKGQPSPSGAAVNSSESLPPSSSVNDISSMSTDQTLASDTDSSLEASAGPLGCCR
T2 sequence (Q08345 whole entry, the tested form may be a part): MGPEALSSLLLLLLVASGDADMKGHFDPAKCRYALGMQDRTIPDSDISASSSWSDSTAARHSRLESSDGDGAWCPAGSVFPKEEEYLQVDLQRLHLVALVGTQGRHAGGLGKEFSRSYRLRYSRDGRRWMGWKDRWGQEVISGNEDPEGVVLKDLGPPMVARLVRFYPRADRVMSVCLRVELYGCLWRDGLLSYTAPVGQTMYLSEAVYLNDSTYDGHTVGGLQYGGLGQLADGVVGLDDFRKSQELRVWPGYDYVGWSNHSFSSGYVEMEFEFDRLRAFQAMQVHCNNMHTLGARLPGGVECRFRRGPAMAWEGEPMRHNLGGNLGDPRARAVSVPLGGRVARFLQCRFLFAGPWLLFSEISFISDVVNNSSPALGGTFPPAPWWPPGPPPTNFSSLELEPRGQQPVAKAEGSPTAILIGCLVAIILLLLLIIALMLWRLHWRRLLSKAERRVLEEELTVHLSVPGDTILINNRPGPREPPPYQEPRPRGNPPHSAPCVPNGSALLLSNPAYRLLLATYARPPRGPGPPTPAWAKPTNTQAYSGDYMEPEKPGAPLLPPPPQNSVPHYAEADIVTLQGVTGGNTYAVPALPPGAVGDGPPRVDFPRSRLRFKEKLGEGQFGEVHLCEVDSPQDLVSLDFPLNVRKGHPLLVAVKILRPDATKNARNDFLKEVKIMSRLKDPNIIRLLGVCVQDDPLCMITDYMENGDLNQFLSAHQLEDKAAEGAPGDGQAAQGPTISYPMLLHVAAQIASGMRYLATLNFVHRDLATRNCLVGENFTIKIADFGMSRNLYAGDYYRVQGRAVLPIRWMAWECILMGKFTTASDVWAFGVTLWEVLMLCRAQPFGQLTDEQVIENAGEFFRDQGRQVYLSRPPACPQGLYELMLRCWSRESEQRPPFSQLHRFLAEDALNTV
T1 sequence (Q15759 whole entry, the tested form may be a part): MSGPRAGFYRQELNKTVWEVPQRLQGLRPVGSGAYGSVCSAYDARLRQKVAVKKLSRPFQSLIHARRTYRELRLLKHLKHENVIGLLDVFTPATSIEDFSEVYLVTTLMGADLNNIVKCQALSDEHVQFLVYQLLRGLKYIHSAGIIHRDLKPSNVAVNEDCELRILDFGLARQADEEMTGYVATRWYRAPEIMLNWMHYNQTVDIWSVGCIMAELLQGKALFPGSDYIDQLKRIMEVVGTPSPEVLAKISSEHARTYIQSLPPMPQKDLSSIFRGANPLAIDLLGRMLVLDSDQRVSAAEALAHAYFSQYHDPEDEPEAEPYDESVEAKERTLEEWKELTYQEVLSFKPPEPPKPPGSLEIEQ
Chain of Serine/threonine-protein kinase 36 (Q9NRP7 whole entry): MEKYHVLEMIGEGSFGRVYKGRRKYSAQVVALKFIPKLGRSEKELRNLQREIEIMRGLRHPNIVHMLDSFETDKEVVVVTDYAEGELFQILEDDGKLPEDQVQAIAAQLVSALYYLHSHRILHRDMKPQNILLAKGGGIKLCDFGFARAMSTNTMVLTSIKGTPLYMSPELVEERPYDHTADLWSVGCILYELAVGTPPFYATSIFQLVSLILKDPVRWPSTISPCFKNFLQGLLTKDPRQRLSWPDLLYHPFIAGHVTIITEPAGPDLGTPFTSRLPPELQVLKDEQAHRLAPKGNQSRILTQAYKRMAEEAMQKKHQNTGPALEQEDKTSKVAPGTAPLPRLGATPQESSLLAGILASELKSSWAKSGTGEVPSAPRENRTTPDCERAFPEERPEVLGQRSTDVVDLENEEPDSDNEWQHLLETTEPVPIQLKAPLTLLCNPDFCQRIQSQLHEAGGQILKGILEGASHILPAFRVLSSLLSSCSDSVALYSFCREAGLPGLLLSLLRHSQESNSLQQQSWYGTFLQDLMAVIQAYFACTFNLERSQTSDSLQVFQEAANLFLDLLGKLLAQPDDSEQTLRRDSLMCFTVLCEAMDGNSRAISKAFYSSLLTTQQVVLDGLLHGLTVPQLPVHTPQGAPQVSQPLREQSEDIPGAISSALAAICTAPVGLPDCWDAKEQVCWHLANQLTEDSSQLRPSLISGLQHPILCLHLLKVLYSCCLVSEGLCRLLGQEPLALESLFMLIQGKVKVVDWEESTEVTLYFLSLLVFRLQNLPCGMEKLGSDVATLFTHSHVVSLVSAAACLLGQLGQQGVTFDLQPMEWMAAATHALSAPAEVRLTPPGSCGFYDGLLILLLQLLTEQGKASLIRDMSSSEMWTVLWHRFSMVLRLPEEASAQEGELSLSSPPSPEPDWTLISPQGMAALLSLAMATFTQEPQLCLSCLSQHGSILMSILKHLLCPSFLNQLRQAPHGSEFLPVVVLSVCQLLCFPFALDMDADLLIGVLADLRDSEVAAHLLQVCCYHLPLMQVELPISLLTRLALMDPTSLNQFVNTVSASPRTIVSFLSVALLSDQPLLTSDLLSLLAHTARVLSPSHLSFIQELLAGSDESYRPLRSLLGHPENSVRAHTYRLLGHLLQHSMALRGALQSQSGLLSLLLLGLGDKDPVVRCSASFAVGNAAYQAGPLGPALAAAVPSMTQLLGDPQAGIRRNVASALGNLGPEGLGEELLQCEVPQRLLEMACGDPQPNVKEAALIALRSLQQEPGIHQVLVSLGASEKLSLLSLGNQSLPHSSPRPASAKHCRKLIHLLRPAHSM
Chain of Serine/threonine-protein kinase 36 (Homo sapiens) (Q9NRP7 whole entry): as above
Chain of Mitogen-activated protein kinase 9 (Homo sapiens) (P45984 whole entry, looked up): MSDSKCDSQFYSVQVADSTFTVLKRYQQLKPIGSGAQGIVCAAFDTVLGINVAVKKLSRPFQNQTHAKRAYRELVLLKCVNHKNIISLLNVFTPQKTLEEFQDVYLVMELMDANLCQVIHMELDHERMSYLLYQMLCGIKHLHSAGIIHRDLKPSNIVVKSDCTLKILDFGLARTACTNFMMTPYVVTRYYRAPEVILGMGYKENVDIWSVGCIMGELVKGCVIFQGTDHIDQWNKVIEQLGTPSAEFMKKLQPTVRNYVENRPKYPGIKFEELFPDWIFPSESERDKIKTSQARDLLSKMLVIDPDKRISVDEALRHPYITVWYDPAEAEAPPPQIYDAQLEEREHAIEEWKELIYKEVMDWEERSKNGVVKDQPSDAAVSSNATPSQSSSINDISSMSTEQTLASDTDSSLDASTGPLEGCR

O=c1c(Oc2ccc(F)cc2F)cc2cnc(NC3CCOCC3)nc2n1CCCO
IC50 (Blood): 14 nM

CS(=O)(=O)CCn1c(=O)c(Oc2ccc(F)cc2F)cc2cnc(NC3CCOCC3)nc21
IC50 [1]: 20 nM | IC50 (Blood): 308 nM

CS(=O)(=O)CCCn1c(=O)c(Oc2ccc(F)cc2F)cc2cnc(NC3CCOCC3)nc21
IC50 [1]: 6 nM | IC50 (Blood): 18 nM

O=c1c(Oc2ccc(F)cc2F)cc2cnc(NC3CCOCC3)nc2n1C1CCS(=O)(=O)CC1
IC50 [1]: 1 nM | IC50 (Blood): 11 nM

CC(C)(O)Cn1c(=O)c(Oc2ccc(F)cc2F)cc2cnc(NC3CCOCC3)nc21
IC50 [1]: 12 nM | IC50 (Blood): 84 nM

O=c1c(Oc2ccc(F)cc2F)cc2cnc(NC3CCOCC3)nc2n1C[C@H](O)CO
IC50 [1]: 7 nM | IC50 (Blood): 15 nM

N#CCn1c(=O)c(Oc2ccc(F)cc2F)cc2cnc(NC3CCOCC3)nc21
IC50 [1]: 2 nM | IC50 (Blood): 28 nM

CS(=O)(=O)N1CCC(n2c(=O)c(Oc3ccc(F)cc3F)cc3cnc(NC4CCOCC4)nc32)CC1
IC50 [1]: 1 nM | IC50 (Blood): 52 nM

CNc1ncc2cc(Oc3ccc(F)cc3F)c(=O)n(C)c2n1
IC50 [1]: 260 nM

Cn1c(=O)c(Oc2ccc(F)cc2F)cc2cnc(N[C@H]3CCOC3)nc21
IC50 [1]: 31 nM | IC50 (Blood): 373 nM

Cn1c(=O)c(Oc2ccc(F)cc2F)cc2cnc(NCC(C)(C)O)nc21
IC50 [1]: 67 nM

Cn1c(=O)c(Oc2ccc(F)cc2F)cc2cnc(NC(C)(C)CO)nc21
IC50 [1]: 25 nM

Cn1c(=O)c(Oc2ccc(F)cc2F)cc2cnc(NC(CO)CO)nc21
IC50 [1]: 158 nM | IC50 (Blood): 189 nM

Cn1c(=O)c(Oc2ccc(F)cc2F)cc2cnc(NCCS(C)(=O)=O)nc21
IC50 [1]: 223 nM | IC50 (Blood): 1490 nM

CC(=O)N1CCC(Nc2ncc3cc(Oc4ccc(F)cc4F)c(=O)n(C)c3n2)CC1
IC50 [1]: 1 nM | IC50 (Blood): 30 nM | solubility [2]: 14 µg/mL (≈ 32.6 µM) | Papp A→B at 10 µM [3]: 17.9 ×10⁻⁶ cm/s | Papp B→A at 10 µM [4]: 19.8 ×10⁻⁶ cm/s | inhibition in vivo at 3 mg/kg (Rattus norvegicus [5]): 76%

Cn1c(=O)c(Oc2ccc(F)cc2F)cc2cnc(N[C@H]3CC[C@H](O)CC3)nc21
IC50 [1]: 4 nM | IC50 (Blood): 68 nM

Cn1c(=O)c(Oc2ccc(F)cc2F)cc2cnc(NC3CCS(=O)(=O)CC3)nc21
IC50 [1]: 15 nM | IC50 (Blood): 769 nM

Cn1c(=O)c(Oc2ccc(F)cc2F)cc2cnc(NC3CCOCC3)nc21
inhibition [6]: > 85% | inhibition [7]: > 85% | inhibition [8]: > 85% | inhibition [9]: > 85% | inhibition [10]: > 85% | inhibition [11]: > 85% | inhibition [12]: > 85% | inhibition [13]: > 85% | inhibition [14]: > 85% | inhibition [15]: > 85% | inhibition [16]: > 85% | inhibition [17]: > 85%

Cn1c(=O)c(Oc2ccc(F)cc2F)cc2cnc(NC3CCOCC3)nc21 [R-1487]
Kd [18]: 29 nM | Kd [19]: 320 nM | Kd [20]: > 1000 nM | Kd [21]: 270 nM | Kd [22]: 3 nM | Kd [23]: 6 nM | Kd [24]: 73 nM | Kd [25]: 330 nM | IC50 (Blood): 170 nM | solubility [2]: 6 µg/mL (≈ 15.4 µM) | Papp A→B at 10 µM [3]: 33 ×10⁻⁶ cm/s | Papp B→A at 10 µM [4]: 23.7 ×10⁻⁶ cm/s | EC50 (Rattus norvegicus [26]): 30 nM | ED50 (Rattus norvegicus [26]; po): 0.8 mg/kg | inhibition in vivo at 3 mg/kg (Rattus norvegicus [5]): 68% | IC50 (THP-1): 47 nM | EC50 (Rattus norvegicus [27]): 10 nM | ED50 (Rattus norvegicus [27]; po): 0.4 mg/kg | EC50 (Rattus norvegicus [28]): 20 nM | ED50 (Rattus norvegicus [28]; po): 0.4 mg/kg | ED50 (Rattus norvegicus [29]): 5.5 mg/kg | Tmax [30]: 4.67 h | Cmax [31]: 1560 ng/mL | half-life [32]: 22.5 h | AUC(0-inf) [33]: 29400 ng·h/mL | bioavailability [34]: 51.6% | clearance [35]: 3.05 mL/min/kg | Vd [36]: 2.73 L/kg | fraction unbound [37]: 0.046 | IC50 (Cytochrome P450 1A2): > 40000 nM | IC50 (Cytochrome P450 2C9): > 40000 nM | IC50 (Cytochrome P450 2C19): > 40000 nM | IC50 (Cytochrome P450 2D6): > 40000 nM | IC50 (Cytochrome P450 3A4): > 40000 nM
